Data reported in US20060134217A1, “Leukotriene and integrin inhibitor combination and treatment method” (priority 2004, published 2006).
Marks after values point to notes of the source that are not given here. Each block holds one compound with its values, some of them ahead of it.

Legend:
[1] = test system: mild/moderate asthmatics not treated with inhaled corticosteroids; assay: ARES study: R411 monotherapy, 12 week treatment period; type: in vivo, human; settings: for % Asthma exacerbation / Asthma control Questionnaire (Total Score), change from baseline / Morning asthma symptoms, change from baseline / Nocturnal awakenings (scores), change from baseline / Rescue β 2-agonist use (puffs/d), change from baseline: 12 weeks, ITT population
Description: The ARES study illustrated in FIG. 4 was designed to evaluate the safety and efficacy of monotherapy R411 over a 12 week treatment period in 480 mild/moderate asthmatics not treated with inhaled corticosteroids. Patients were randomized to one of four cohorts: 50, 200, 600 mg QD R411, or placebo (n=120/group). The primary endpoint in the study was change in FEV1 from baseline, and secondary endpoints included PEFR, asthma exacerbations, β2-agonist use, asthma control questionnaire, asthma symptom scores, and nocturnal awakenings.
ARES study evaluated the safety and efficacy of monotherapy with R411 over a 12-week treatment period in 479 mild/moderate asthmatics not treated with inhaled corticosteroids. Patients were randomized to one of four cohorts: 50, 200, 600 mg once daily R411, or placebo.

[2] = test system: persistent asthmatics on low to medium inhaled corticosteroids; assay: Phase II add-on of R411 to inhaled corticosteroids (MARS study); type: in vivo, human; settings: added to moderate dose inhaled corticosteroids, subpopulation with less well controlled asthma
Text: As set out above, a second component in the solid pharmaceutical dosage form comprises a therapeutically effective amount of R411 (N-(2-chloro-6-methylbenzoyl)-4-[(2,6-dichlorobenzoyl)amino]-L-phenylalanine-2-(diethylamino)ethyl ester), or a pharmaceutically acceptable salt thereof. […] The MARS study illustrated in FIG. 3 was designed to evaluate the safety and efficacy of R411 over a 12 week treatment period in 350 persistent asthmatics being treated with a stable dose of low to medium inhaled corticosteroids and inhaled short acting […]. Patients were randomized to one of five cohorts: 50, 200, 600 mg once daily (QD) or 300 mg twice daily (BID) R411, or placebo (n=70/group). After a 2-week placebo run-in period and subsequent 2-week add-on period (R411 or placebo), morning inhaled corticosteroids were removed. Two weeks later, evening inhaled corticosteroids were removed, and patients remained in the treatment period for an additional 8 weeks. The primary endpoint in the study was the percentage change in FEV1 from baseline, and secondary endpoint included PEFR, asthma exacerbations, β2-agonist use, asthma control questionnaire, asthma symptom scores, nocturnal awakenings, FEF25-75 and rate of asthma treatment failures.

atopic primate = assay: Airway inflammation in the atopic primate, oral R411; type: in vivo; settings: oral administration, FIG. 6
key inflammatory cells = assay: Migration of inflammatory cells from blood into lungs; settings: in vivo
α4 = target: T1, α4 (Homo sapiens, UniProt P13612); assay: In vitro binding to α4 integrin
T1 sequence (P13612 34-1032): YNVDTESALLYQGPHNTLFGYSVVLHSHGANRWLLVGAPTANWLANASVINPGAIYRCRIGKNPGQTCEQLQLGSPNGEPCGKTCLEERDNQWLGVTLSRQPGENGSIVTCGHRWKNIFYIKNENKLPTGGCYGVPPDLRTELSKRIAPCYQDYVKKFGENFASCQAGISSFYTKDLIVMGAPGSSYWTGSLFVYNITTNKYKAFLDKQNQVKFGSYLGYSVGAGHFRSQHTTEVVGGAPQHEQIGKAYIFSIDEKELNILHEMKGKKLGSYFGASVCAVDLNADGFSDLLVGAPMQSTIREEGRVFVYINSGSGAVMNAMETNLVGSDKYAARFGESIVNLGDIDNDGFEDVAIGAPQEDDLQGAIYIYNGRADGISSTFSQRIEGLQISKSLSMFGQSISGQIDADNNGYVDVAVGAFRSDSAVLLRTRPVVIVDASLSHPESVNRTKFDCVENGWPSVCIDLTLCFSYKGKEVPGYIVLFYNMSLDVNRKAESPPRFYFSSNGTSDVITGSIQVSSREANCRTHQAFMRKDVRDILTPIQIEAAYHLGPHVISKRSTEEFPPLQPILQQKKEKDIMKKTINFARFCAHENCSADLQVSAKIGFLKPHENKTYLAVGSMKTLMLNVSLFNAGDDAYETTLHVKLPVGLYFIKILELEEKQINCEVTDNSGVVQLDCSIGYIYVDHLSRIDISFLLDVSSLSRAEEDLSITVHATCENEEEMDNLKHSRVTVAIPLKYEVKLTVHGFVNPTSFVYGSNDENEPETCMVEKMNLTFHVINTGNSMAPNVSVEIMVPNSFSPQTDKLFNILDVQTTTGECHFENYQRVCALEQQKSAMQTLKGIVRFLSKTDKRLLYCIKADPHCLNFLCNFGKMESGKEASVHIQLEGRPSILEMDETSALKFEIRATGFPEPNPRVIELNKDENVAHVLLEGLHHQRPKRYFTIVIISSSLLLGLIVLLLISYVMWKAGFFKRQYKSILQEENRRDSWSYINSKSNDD

[3] = target: α4/β1 to vascular cell adhesion molecule (VCAM-1) (Homo sapiens, UniProt P05556+P13612); assay: Inhibition of α4/β1 binding to VCAM-1
Text: (§1) R411 inhibits the binding of α4/β1 to vascular cell adhesion molecule (VCAM-1) and α4/β7 to MadCAM-1 by […]. R411 is disclosed in U.S. Pat. No. 6,229,011, which disclosure is incorporated by reference herein.

α4/β7 to MadCAM-1 = target: T2, α4/β7 to MadCAM-1 (Homo sapiens, UniProt P13612+P26010); assay: Inhibition of α4/β7 binding to MadCAM-1
T2 sequence (P13612 34-1032): T1 sequence (P13612 34-1032)
T2 sequence (P26010 20-798): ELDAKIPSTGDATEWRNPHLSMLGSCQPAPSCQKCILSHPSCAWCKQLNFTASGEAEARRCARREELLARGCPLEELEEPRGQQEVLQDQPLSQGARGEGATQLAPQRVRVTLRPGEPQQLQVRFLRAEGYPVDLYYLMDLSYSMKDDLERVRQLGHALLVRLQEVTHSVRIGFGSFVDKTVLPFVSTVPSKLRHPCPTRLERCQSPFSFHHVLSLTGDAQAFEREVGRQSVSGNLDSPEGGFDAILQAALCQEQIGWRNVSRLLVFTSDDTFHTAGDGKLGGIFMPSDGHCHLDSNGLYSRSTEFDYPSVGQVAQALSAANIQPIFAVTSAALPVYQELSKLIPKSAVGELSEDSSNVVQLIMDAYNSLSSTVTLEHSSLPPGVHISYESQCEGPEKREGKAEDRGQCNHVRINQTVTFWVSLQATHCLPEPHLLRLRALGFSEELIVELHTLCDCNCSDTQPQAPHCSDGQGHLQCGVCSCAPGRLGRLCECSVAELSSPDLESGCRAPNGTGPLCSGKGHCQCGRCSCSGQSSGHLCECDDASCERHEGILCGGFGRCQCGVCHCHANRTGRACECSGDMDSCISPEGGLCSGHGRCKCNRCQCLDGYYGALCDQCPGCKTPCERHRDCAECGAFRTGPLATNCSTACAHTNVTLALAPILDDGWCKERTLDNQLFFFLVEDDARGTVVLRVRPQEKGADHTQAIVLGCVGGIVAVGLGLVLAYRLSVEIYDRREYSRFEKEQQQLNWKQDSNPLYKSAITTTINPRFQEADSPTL
Text: as §1

[4] = test system: α4/β1 and α4/β7 integrins; assay: Integrin selectivity
[5] = Text: The pharmaceutical dosage forms may also be formulated to provide a chronobiological synergy of the two compounds.
[6] = test system: mild and moderate asthmatics; settings: cited from earlier work
[7] = test system: stable asthmatic adults maintained on inhaled corticosteroids; settings: cited from earlier work
[8] = 50, 200, 600 mg once daily vs placebo

α4/β1 to vascular cell adhesion molecule (VCAM-1), sequence (P05556 21-798, one chain of several): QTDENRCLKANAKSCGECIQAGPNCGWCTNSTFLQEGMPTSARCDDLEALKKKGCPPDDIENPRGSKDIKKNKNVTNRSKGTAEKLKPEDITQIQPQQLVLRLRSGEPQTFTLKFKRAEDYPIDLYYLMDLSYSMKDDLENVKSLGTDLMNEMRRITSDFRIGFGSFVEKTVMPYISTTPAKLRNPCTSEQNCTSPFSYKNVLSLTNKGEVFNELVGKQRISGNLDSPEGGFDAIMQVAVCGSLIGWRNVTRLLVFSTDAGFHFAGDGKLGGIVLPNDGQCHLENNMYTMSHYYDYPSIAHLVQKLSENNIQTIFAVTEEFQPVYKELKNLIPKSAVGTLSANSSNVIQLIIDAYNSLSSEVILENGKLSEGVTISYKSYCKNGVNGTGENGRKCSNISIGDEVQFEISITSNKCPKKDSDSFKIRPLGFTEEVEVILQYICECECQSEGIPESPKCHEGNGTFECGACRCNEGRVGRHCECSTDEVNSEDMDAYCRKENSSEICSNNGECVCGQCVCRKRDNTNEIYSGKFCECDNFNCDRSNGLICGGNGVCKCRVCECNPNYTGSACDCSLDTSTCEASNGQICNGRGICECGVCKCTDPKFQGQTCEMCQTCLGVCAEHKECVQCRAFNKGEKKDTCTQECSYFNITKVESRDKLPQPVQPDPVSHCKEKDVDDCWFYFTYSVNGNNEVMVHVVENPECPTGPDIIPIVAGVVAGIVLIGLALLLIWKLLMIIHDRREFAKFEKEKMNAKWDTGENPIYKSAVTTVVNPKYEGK

binding affinity (α4; activated α4): high affinity | dissociation (α4; activated α4): slow dissociation | dissociation (α4; receptor not activated): more rapid | in vitro binding affinity (α4; receptor not activated): lower | inhibition of binding of α4/β1 to VCAM-1 [3]: inhibits | inhibition of binding of α4/β7 to MadCAM-1 (α4/β7 to MadCAM-1): inhibits | acid/base character [5]: weak base
SMILES: CCN(CC)CCOC(=O)[C@H](Cc1ccc(NC(=O)c2c(Cl)cccc2Cl)cc1)NC(=O)c1c(C)cccc1Cl [R411, N-(2-Chloro-6-methylbenzoyl)-4-[(2,6-dichlorobenzoyl)amino]-L-phenylalanine-2-(diethylamino)ethyl ester]
% Asthma exacerbation ([1]; 200 mg once daily): 25.6% | Asthma control Questionnaire (Total Score), change from baseline ([1]; 200 mg once daily): −0.29 [2.08] | Morning asthma symptoms, change from baseline ([1]; 200 mg once daily): −0.34* [1.55] | Nocturnal awakenings (scores), change from baseline ([1]; 200 mg once daily): −0.15*/[0.61] scores | Rescue β 2-agonist use (puffs/d), change from baseline ([1]; 200 mg once daily): −0.36/[3.04] puffs/d | % Asthma exacerbation ([1]; 600 mg once daily): 26.10% | Asthma control Questionnaire (Total Score), change from baseline ([1]; 600 mg once daily): −0.23 [2.00] | Morning asthma symptoms, change from baseline ([1]; 600 mg once daily): −0.33* [1.57] | Nocturnal awakenings (scores), change from baseline ([1]; 600 mg once daily): −0.12*/[0.58] scores | Rescue β 2-agonist use (puffs/d), change from baseline ([1]; 600 mg once daily): −0.41*/[3.11] puffs/d | decrease in daytime asthma and nocturnal symptom score [1, 8]: Statistically significant improvements | reducing rescue albuterol use [1, 8]: Statistically significant improvements | Asthma Control Questionnaire Scores and Asthma Quality-of-Life ([1]; compared to placebo): Improvement | small airway flow rates as measured by FEF25-75 ([1]; monotherapy, FIG. 4): significant effect | reduction in asthma exacerbations ([1]; two highest doses of 200 and 600 mg): 26% | large airway flow rates as measured by FEV1 ([2]; FIG. 2): additive effect | small airway flow rates measured by FEF25-75 ([2]; FIG. 3): additive effect | airway inflammation (atopic primate): attenuates airway inflammation | migration of key inflammatory cells from the blood into the lungs (key inflammatory cells): block the migration | integrin selectivity [4]: effective against both α4/β1 and α4/β7 integrins | solubility along the gastrointestinal tract [5]: higher solubility in the upper part of the gastrointestinal tract

SMILES: CC(C)(O)c1ccccc1CC[C@@H](SCC1(CC(=O)[O-])CC1)c1cccc(/C=C/c2ccc3ccc(Cl)cc3n2)c1.[Na+] [montelukast, [R-(E)]-1-[[[1-[3-[2-(7-chloro-2-quinolinyl)ethenyl]phenyl]-3-[2-(1-hydroxy-1-methylethyl)phenyl]propyl]thio]methyl]cyclopropaneacetic acid, monosodium salt]
reduction of "as-needed" (beta)-agonist use from baseline ([6]; adult patients, placebo 4.6%): 26.1% | reduction of nocturnal awakenings from baseline ([6]; patients with nocturnal awakenings of at least 2 nights per week, combined analysis, placebo 15%): 34% | reduction in mean inhaled corticosteroid dose ([7]; 12-week active treatment period, placebo 30%): 47% | patients successfully tapered off inhaled corticosteroids ([7]; at conclusion of study, placebo 29%, p=NS): Approximately 40%
